Data: article PMC6220272, “Scaffold-Hopping from Synthetic Drugs by Holistic Molecular Representation” (Scientific Reports, 2018)

Tests used:
PPARα = target: T1, PPARα (Homo sapiens, UniProt Q07869); experiment: Gal4 hybrid reporter gene assay PPARα (selectivity profiling); format: cell-based
T1 construct: expressed in transfected cells; host or cells: HEK293T
T1 sequence (Q07869 239-466 limits assumed): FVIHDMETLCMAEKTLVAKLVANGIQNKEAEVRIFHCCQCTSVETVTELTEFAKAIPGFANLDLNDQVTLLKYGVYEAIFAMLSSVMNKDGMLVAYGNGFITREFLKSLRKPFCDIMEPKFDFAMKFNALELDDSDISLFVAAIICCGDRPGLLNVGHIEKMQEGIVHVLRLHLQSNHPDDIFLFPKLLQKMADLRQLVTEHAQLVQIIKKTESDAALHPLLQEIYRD
Method: (§1) Moreover, 7 was characterized for its ability to modulate RXR target gene expression under more physiological conditions. Hepatoma cells (HepG2) were incubated with 7 (30 µM) or reference RXR agonist bexarotene (9, 1 µM) for eight hours and mRNA expression of RXR regulated genes ATP-binding cassette transporter A1 (ABCA1), angiopoietin like protein 4 (ANGPTL4) and apolipoprotein E (ApoE) was analysed by quantitative real-time PCR.
(§2) The Gal4 hybrid reporter gene assays were conducted as reported previously[39]–[41]. pFA-CMV-based constructs comprising the ligand binding domain of the human nuclear receptor in question were used as expression plasmids for the chimera receptors. pFR-Luc (Stratagene) served as reporter plasmid and pRL-SV40 (Promega) for normalization of transfection efficiency and cell growth. The assays were conducted in 96-well format in HEK293T cells that were cultured as described previously[39]–[41]. Transient transfection was carried out using Lipofectamine LTX reagent (Invitrogen) according to the manufacturer’s protocol. After transfection and incubation with test compounds (12–14 h), cells were assayed for luciferase activity using Dual-Glo™ Luciferase Assay System (Promega) according to the manufacturer’s protocol. Luminescence was measured with an Infinite M200 luminometer (Tecan Deutschland GmbH). […]

LXRβ = target: T2, LXRβ (Homo sapiens, UniProt P55055); experiment: Gal4 hybrid reporter gene assay LXRβ (selectivity profiling); format: cell-based
T2 construct: expressed in transfected cells; host or cells: HEK293T
T2 sequence (P55055 222-460 limits assumed): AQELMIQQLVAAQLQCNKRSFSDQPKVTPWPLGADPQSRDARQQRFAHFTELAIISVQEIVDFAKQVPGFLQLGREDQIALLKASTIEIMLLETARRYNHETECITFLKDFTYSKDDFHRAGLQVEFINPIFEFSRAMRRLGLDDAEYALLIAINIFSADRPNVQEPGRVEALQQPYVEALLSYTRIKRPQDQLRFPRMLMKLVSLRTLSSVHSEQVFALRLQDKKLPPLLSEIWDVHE
Method: as §1, §2

activity on PPARα (PPARα): no activity
activity on LXRβ (LXRβ): no activity
Compound: CC(C)(C)c1cc(/C=N/NC(=O)c2ccc(N)cc2)cc(C(C)(C)C)c1 [Compound 7]
